Laboratory results from US4342780A, “Method of depleting endogenous monoamines” (Merrell-Toraude et Cie, priority 1981, dated 1982).

Legend:
AADC [1] = biological target: T1, AADC (Sus scrofa, UniProt P80041); assay: In vitro AADC inhibition: time of 90% inactivation (14CO2 trapping, DL-[1-14C]-dopa substrate); assay type: biochemical, hog; set-up: key to RATING: ++++: The relative activities of the compounds are rated by the given number of "plus" signs; +++: The relative activities of the compounds are rated by the given number of "plus" signs; 0-+: The relative activities of the compounds are rated by the given number of "plus" signs; settings: CONC. 10 μM
T1 sequence (P80041 1-486): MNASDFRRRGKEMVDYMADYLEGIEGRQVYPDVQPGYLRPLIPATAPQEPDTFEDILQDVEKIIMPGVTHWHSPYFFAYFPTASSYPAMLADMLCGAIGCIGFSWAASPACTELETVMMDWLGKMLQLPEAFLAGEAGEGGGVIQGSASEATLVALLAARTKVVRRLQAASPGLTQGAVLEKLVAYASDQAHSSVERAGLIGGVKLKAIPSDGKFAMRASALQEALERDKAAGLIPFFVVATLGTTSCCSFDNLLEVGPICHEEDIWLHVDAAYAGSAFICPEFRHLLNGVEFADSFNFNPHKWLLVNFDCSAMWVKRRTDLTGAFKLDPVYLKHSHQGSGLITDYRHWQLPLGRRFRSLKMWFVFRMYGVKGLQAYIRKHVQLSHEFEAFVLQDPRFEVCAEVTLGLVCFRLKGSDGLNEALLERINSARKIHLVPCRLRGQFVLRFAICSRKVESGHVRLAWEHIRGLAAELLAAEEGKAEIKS
Experimental: AADC can be purified from hog kidney by the general method of J. Christenson et al. Archs. Biochem. Biophys., 141, 356 (1970) and G. Lancaster et al., Can. J. Biochem., 50, 791 (1972), and the specific activity of the enzyme is determined by the ^14 CO2 trapping method using DL-[1-^14 C]-dopa as the substrate (see Christenson et al.). One unit of activity is defined as the total amount of enzyme which produces 1 n mol of CO2 per minute, with DL-[1-^14 C]-dopa as substrate.
To 100 μl of 50 mM-phosphate buffer pH 7.4 containing 100 mM-mercapto-ethanol are added 5 μl of an aqueous solution containing the test compound at the desired concentration and 50 μl of an aqueous solution containing 2 units of AADC. The mixture is incubated at 37° C. and 20 μl aliquots are removed at various times. The AADC activity remaining in each aliquot is measured by the CO2 trapping method of Christenson.
The relative activities of the compounds are rated by the given number of "plus" signs.

AADC [2] = assay: Ex vivo AADC activity in organs of mice after repeated i.p. doses (Table II); set-up: species or system mice (Swiss Albino); settings: three days, 12 h after 6th dose, vs control
Experimental: (§1) The test animals (e.g. mice or rats) are given the test compound in a suitable vehicle, either orally or by injection, each day over the period of time desired. The animals are kept on a constant time cycle, and body weights are measured daily. The animals are sacrificed by decapitation 12 to 24 hours after receiving the last dose of the test compound. Control animals receive the vehicle alone.
(§2) Immediately after death, the organs (brain, heart, and kidney) are removed and homogenized either in 50 ml phosphate buffer pH 6.8 for AADC determination or in ice-cold 0.4 M HClO4 containing 0.05% (w/v) EDTA and 0.1% (w/v) sodium bisulfite for catecholamine determination. AADC activity is determined by the ^14 CO2 trapping method of J. Christenson, supra (see Example 14) using DL-[1-^14 C]-dopa as the substrate. Catecholamines are determined by centrifuging the homogenate, adding the supernatant to alumina buffered to pH 8.0-8.4 to adsorb the catecholamines, re-extracting the catecholamines from the alumina with 0.2 M HClO4 and determining the catecholamines in the extracts using known procedures, such as by reversed-phase ion-pair HPLC with electrochemical detection.
(§3) Table II, shown below, sets forth the results obtained by testing particular compounds of Formula I in the above-described procedure in mice (Swiss Albino) after i.p. administration of the compound twice daily for three days: […]

[3] = system: catecholamine content (norepinephrine, dopamine); assay: Catecholamine content in organs of mice after repeated i.p. doses (Table II); assay type: in vivo, mice (Swiss Albino); settings: three days, 12 h after 6th dose, vs control
Experimental: as §1, §2, §3

[4] = system: dopamine, noradrenalin and 5-hydroxytryptamine content; assay: Effect on catecholamines and 5-HT in brain regions of the rat 24 hours post-dose (Table IV); assay type: in vivo, Male Sprague-Dawley rats; settings: 100 mg/kg i.p., ± S.E.M.
Experimental: The following example illustrates the effect of 2-amino-2-fluoromethyl-3-(3,4-dihydroxyphenyl)propionic acid on catecholamines and 5-HT in the brain.
Male Sprague-Dawley rats (200-300 g) from Charles River, France are housed in groups having free access to food and water. The animals are maintained on a 12 hour light-dark cycle at an ambient temperature of 23° C. The compound 2-amino-2-fluoromethyl-3-(3,4-dihydroxyphenyl)propionic acid is dissolved in 0.9% saline solution and administered as a single dose of 100 mg/kg, i.p. The animals are sacrificed 24 hours later and the brain is dissected on a chilled glass plate into six regions: the striatum, hypothalmus, olfactory tubercles, frontal cortex, cerebellum and brain stem. The tissues are weighed and homogenized in 600 microliters of ice-cold 0.4 Normal HClO4 reagent. The homogenate is centrifuged and dopamine, noradrenalin and 5-hydroxytryptamine are determined by reversed-phase ion-pair high pressure liquid chromatography using electrochemical detection.

TIME OF 90% INACTIVATION (AADC [1]; pH 7.4, 37° C.): 1 to 2 min
RATING (AADC [1]; relative activity): ++++
Compound: NC(CF)(Cc1ccc(O)c(O)c1)C(=O)O (stereo not drawn) [3,4-diOH-phenyl, 2-Amino-2-fluoromethyl-3-(3,4-dihydroxyphenyl)propionic acid]
% CHANGE AADC Brain (AADC [2]; 10 mg/kg i.p. twice daily): -86%
% CHANGE AADC Kidney (AADC [2]; 10 mg/kg i.p. twice daily): -95%
% CHANGE AADC Brain (AADC [2]; 100 mg/kg i.p. twice daily): -99%
% CHANGE AADC Kidney (AADC [2]; 100 mg/kg i.p. twice daily): -99%
% CHANGE NOREPINEPHRINE Brain ([3]; 10 mg/kg i.p. twice daily, * not significant): -55%
% CHANGE NOREPINEPHRINE Heart ([3]; 10 mg/kg i.p. twice daily, * not significant (-25*, -7*)): -39%
% CHANGE DOPAMINE Brain ([3]; 10 mg/kg i.p. twice daily, * not significant (-25*, -9*)): 0%
% CHANGE NOREPINEPHRINE Brain ([3]; 100 mg/kg i.p. twice daily): -80%
% CHANGE NOREPINEPHRINE Heart ([3]; 100 mg/kg i.p. twice daily): -80%
% CHANGE DOPAMINE Brain ([3]; 100 mg/kg i.p. twice daily, * not significant (-35*)): -80%
5-Hydroxytriptamine, Cerebellum ([4]; control 30 ± 3, p < 0.01): 11 ± 3 ng/g
Dopamine, Brain Stem ([4]; control 37 ± 9): 13 ± 4 ng/g
Noradrenaline, Striatum ([4]; control 47 ± 13): 46 ± 24 ng/g
Noradrenaline, Cerebellum ([4]; control 137 ± 1, p < 0.001): 17 ± 3 ng/g
Noradrenaline, Olfactory Tubercles ([4]; control 360 ± 32, p < 0.01): 126 ± 29 ng/g
5-Hydroxytriptamine, Frontal Cortex ([4]; control 365 ± 23, p < 0.001): 19 ± 7 ng/g
Dopamine, Hypothalamus ([4]; control 399 ± 23): 280 ± 69 ng/g
Noradrenaline, Brain Stem ([4]; control 439 ± 47, p < 0.01): 143 ± 9 ng/g
5-Hydroxytriptamine, Striatum ([4]; control 591 ± 47, p < 0.001): 50 ± 16 ng/g
5-Hydroxytriptamine, Brain Stem ([4]; control 620 ± 35, p < 0.01): 136 ± 50 ng/g
5-Hydroxytriptamine, Olfactory Tubercles ([4]; control 699 ± 72, p < 0.01): 87 ± 31 ng/g
5-Hydroxytriptamine, Hypothalamus ([4]; control 1162 ± 306, p < 0.05): 199 ± 44 ng/g
Noradrenaline, Hypothalamus ([4]; control 1419 ± 107, p < 0.01): 631 ± 37 ng/g
Dopamine, Olfactory Tubercles ([4]; control 1954 ± 62, p < 0.001): 403 ± 44 ng/g
Dopamine, Striatum ([4]; control 7342 ± 357, p < 0.001): 1466 ± 156 ng/g
